What was measured:
[1] = tested on: NRF2; experiment: NRF2/HO-1 induction in Keap1−/− versus Keap1+/+ MEFs; assay type: cell-based, mouse; conditions: PHAR 10 μM, 8 h
Experimental: FIG. 5. PHAR-mediated NRF2 activation is independent of KEAP1 and is responsible for the increase in the expression of its targets. (A-D) Serum-deprived MEFs originating from wild-type (WT) or KEAP1 null (Keap1−/−) mice were treated with 10 μM of PHAR for the indicated times. 0.1% DMSO was used as a vehicle. A), representative immunoblots of NRF2, HO1, KEAP1, LAMINB, and GAPDH as loading controls. B) and C), densitometric analysis of NRF2 and HO1 protein levels of the representative immunoblots of (A), expressed as a ratio of NRF2/LAMINB or HO1/GAPDH. The data is depicted as means±SEM (n=3). Statistical analysis was performed with two-way ANOVA followed by the Bonferroni test to check inter-group differences. D), the mRNA levels of Hmox-1, Nqo1, Aox1, Gc1c, and Gc1m were determined after 8 h of 10 μM PHAR by means of qRT-PCR and normalized by means of average Gapdh, Tbp, and β-actin. The data is depicted as mean±SEM (n=3). […] F) and G), densitometric analysis of NRF2 and HO1 protein levels of the representative immunoblots of (E), expressed as a ratio of NRF2/LAMINB or HO1/GAPDH. […] H), the mRNA levels of Hmox-1, Nqo1, Aox1, Gclc, and Gclm were determined after 8 h of 10 μM PHAR by means of qRT-PCR and normalized by means of average Gapdh, Tbp, and β-actin. […]

[2] = tested on: STAM mice (NAFLD); experiment: STAM fatty liver model, treatment from NASH stage (week 8) to week 10; assay type: in vivo, mouse
From the text: FIG. 13. PHAR slows fatty liver progression. The progressive damage of liver cells as a consequence of their metabolic alteration and chronic low-grade inflammation leads to their progression towards fibrosis and the consequent loss of liver function. The present invention makes it possible to treat patients diagnosed with fatty liver to prevent its progression towards more severe forms of liver disease such as fibrosis and cirrhosis. A) Scheme of the liver damage progression model. B) Representative spectra derived from MRI studies. At starting point (week 8; W8, NASH inflammation), mice subjected to the STAM protocol had fatty liver imitating the status of newly diagnosed patients. At this point, treatment with PHAR (50 mg/kg i.p; 5 days per week) began until week 10 (W10, fibrosis). C) standardized quantification of the amount of liver fat per mouse measured by MRI. Statistical analysis was performed using a two-way ANOVA followed by a Bonferroni test to compare the differences between treatments in control and STAM groups. **p<0.01. D) profiles of evolution of the amount of liver fat per mouse measured by MRI at week 8 (NASH) and week 10 (fibrosis). E) H&E histochemical analysis of mice treated with PHAR vs vehicle in control mice and in STAM mice together with oil red staining for determination of liver fat levels. F) levels of transcripts corresponding to the metabolism of fatty acids (Cpt1a, Scd1, Cd36 and Fasn). G) Levels of transcripts corresponding to pro-inflammatory cytokines (Tnf, Il6 and Infg) and anti-inflammatory (Il10 and Il4). For F and G, relative mRNA levels were determined by qRT-PCR and normalized by averaging Gapdh, Tbp, and β-actin. Statistical analysis was performed using a bidirectional ANOVA followed by a Bonferroni test to compare the differences between PHAR-treated mice vs vehicle-treated mice in the control and STAM models. *p<0.05; ***p<0.001.
After seeing the beneficial role of PHAR in the prevention of NASH, we analyzed its role in progression of liver damage. The progressive damage of hepatocytes is a consequence of their metabolic alteration and chronic low-grade inflammation and oxidative stress (FIG. 13A). We treated mice in the NASH stage (week 8), 5 days a week with an IP dose of 50 mg/kg PHAR until week 10. The analysis of fat accumulation was measured by MRI both at the initial point of treatment and at the end point (FIG. 13B). Vehicle-treated STAM mice underwent a progressive accumulation of lipids. […] Therefore, PHAR reduces low-grade chronic inflammation and liver fat accumulation.

[3] = STAM mice, week 8 to week 10, liver mRNA

## O=C1[C@@H]2[C@H](Cc3c[nH]c4ccccc34)N[C@]3(C(=O)Nc4ccc(Cl)cc43)[C@@H]2C(=O)N1c1ccc2c(c1)OCCO2 [PHAR]
[1]
  mRNA levels of other NRF2 targets in Keap1−/− compared with Keap1+/+ MEFs: The same result was obtained
[2]; STAM mice, week 8 to week 10, IP 50 mg/kg
  liver fat (oil red staining): protection against liver fat accumulation
[2]; STAM mice, week 8 to week 10, IP 50 mg/kg 5 days a week
  lipid accumulation in liver by MRI: significant protection against lipid accumulation
[2]; [3]
  expression of Cpt1a (lipid catabolism): increasing the expression of Cpt1a
  expression of Fasn (lipid synthesis): decrease in the expression of Fasn
  expression of anti-inflammatory cytokines: promotes an increase in anti-inflammatory cytokines
  expression of pro-inflammatory cytokines: attenuates the expression of pro-inflammatory cytokines
[2]; control and STAM mice, week 8 to week 10, IP 50 mg/kg
  liver histology (H&E): normal liver histology
